From BindingDB's records for doi:10.1016/j.bmcl.2009.04.147 (Banyu Pharmaceutical, 2009)

These compounds were tested against Melanin-concentrating hormone receptor 1 (Homo sapiens, UniProt Q99705) (assay: Radioligand Binding Assay (IC50) and Functional Assay (EC50/IC50)). Settings: pH 7.4; 22 °C.
Experimental: Compounds were evaluated for their binding affinity to the membranes of CHO-K1 cells expressing human MCH1R (hMCH1R) in a competition binding assay with [125I]-MCH as the radioligand. After incubation, the membranes were filtrated onto GF/C filter plates and dried. The radioactivity was counted using a microplate scintillation counter (TopCount, PerkinElmer). Non-specific binding was determined by including 1 uM unlabeled MCH in the binding reaction. Antagonistic activity (EC50/IC50) was estimated by the inhibitory effect of compounds on intracellular calcium mobilization induced by MCH using a FLIPR in CHO-K1 cells expressing human MCH1R. The cells were treated with the test compounds for 5 min before addition of MCH.

Chain of Melanin-concentrating hormone receptor 1 (Q99705 as listed by the source): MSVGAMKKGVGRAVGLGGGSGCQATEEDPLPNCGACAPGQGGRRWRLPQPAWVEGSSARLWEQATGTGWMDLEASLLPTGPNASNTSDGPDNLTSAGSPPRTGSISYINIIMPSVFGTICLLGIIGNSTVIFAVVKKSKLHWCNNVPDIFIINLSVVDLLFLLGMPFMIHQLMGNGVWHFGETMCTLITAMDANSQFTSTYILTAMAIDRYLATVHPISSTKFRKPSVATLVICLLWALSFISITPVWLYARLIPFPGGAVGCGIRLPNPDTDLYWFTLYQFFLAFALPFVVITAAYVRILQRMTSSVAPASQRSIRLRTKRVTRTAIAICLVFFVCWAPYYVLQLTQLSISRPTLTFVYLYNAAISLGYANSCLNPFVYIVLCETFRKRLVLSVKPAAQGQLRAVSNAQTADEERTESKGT

Row | SMILES | IC50
1 | CC(C)N(C)c1nc2ccc(NC(=O)CCc3ccc(C(F)(F)F)cc3)cc2[nH]1 [2-aminobenzimidazole-based compound, 8] | 21 nM
2 | CN(c1nc2ccc(NC(=O)CCc3ccc(C(F)(F)F)cc3)cc2[nH]1)C1CCCC1 [2-aminobenzimidazole-based compound, 12] | 22 nM
3 | CN(c1nc2ccc(NC(=O)CCc3ccc(C(F)(F)F)cc3)cc2[nH]1)C1CCCCC1 [2-aminobenzimidazole-based compound, 13] | 27 nM
